Laboratory results reported in patent publication US9873667B2, “Arylsulfanyl compounds and compositions for delivering active agents” (EMISPHERE TECHNOLOGIES INC., priority 2006, dated 2018).

Tests used:
[1] = Oral delivery of caspofungin acetate with delivery agent; plasma caspofungin acetate concentration; assay type: in vivo, male Sprague-Dawley rats; details: Delivery Agent 200 mg/kg, caspofungin acetate: 25 mg/kg
Protocol: Oral gavage dosing solutions of delivery agent compound and caspofungin acetate (Merck & Co., Whitehouse Station, N.J.) in phosphate buffer were prepared by mixing. A solution of the delivery agent compound was made either with the sodium salt of the delivery agent compound or by converting the free acid to its sodium salt. A solution of the delivery agent compound was prepared in phosphate buffer and stirred, adding one equivalent of sodium hydroxide (1.0 N) when making the sodium salt. The final dosing solutions were prepared by mixing the delivery agent compound solution with a caspofungin acetate stock solution (2.5 ml with a concentration of 100 mg/ml in aqueous solution). The pH was adjusted, if necessary, to between about 7 and 8.8. Male Sprague-Dawley rats weighing between about 250-300 g were fasted for 24 hours. A dosing group of five animals was administered one of the dosing solutions. An 11 cm Rusch 8 French catheter was adapted to a 1 ml syringe with a pipette tip. The syringe was filled with the dosing solution by drawing the solution through the catheter, which was then wiped dry. The catheter was placed down the esophagus leaving 1 cm of tubing past the incisors. The dosing solution was administered by pressing the syringe plunger. Blood samples were collected through retroorbital bleeding at time=0 (pre-dose), 15, 30, 60, 240, and 480 minutes. […]

[2] = Oral delivery of LHRH with delivery agent; plasma LHRH concentration; assay type: in vivo, male Sprague-Dawley rats; details: Delivery Agent: 200 mg/kg, LHRH: 1 mg/kg
Protocol: Oral gavage dosing solutions of delivery agent compound and LHRH in phosphate buffer were prepared by mixing. A solution of the delivery agent compound was made either with the sodium salt of the delivery agent compound or by converting the free acid to its sodium salt. A solution of the delivery agent compound was prepared in phosphate buffer and stirred, adding one equivalent of sodium hydroxide (1.0 N) when making the sodium salt. The final dosing solutions were prepared by mixing the delivery agent compound solution with a LHRH stock solution (2.75 ml with a concentration of 20 mg/ml in aqueous solution). The pH was adjusted, if necessary, to between about 7 and 8.8.
(§1) Male Sprague-Dawley rats weighing between about 250-300 g were fasted for 24 hours. A dosing group of five animals was administered one of the dosing solutions. An 11 cm Rusch 8 French catheter was adapted to a 1 ml syringe with a pipette tip. The syringe was filled with the dosing solution by drawing the solution through the catheter, which was then wiped dry. The catheter was placed down the esophagus leaving 1 cm of tubing past the incisors. The dosing solution was administered by pressing the syringe plunger.
Blood samples were collected through retroorbital bleeding of approximately 0.4 ml of blood volume using EDTA tubes at time=0 (pre-dose), 2, 10, 15 and 30 minutes. The five samples from each time period were pooled. Previous studies indicated baseline values of about zero. The maximum absorption at the Tmax is reported below in Table 7. As controls, 4-(3-methyl phenoxy) butyric acid (D.A. “B”), the mesylate salt of (4-(8-(2-hydroxyphenoxy)octyl) morpholine (D.A. “C”), 4-(4-(2-hydroxyphenoxy)butyl) morpholine (D.A. “D”), and 4-(6-(2-hydroxyphenoxy)hexyl) morpholine (D.A. “E”) were also administered according to the same protocol and their results are also shown in FIG. 6.

[3] = Oral delivery of heparin with delivery agent; plasma heparin concentration; assay type: in vivo, male Sprague-Dawley rats; details: Delivery Agent 200 mg/kg, Heparin 80 mg/kg
Blood glucose levels = experiment: Oral delivery of insulin with delivery agent compound; blood glucose by glucometer; assay type: in vivo, male Sprague-Dawley rats
Protocol: Insulin stock solution (15 mg/ml) (Human zinc insulin, Calbiochem-Novabiochem Corp., La Jolla, Calif.) was prepared with deionized water. Oral dosing compositions containing 200 mg/kg of delivery agent compound and 0.5 mg/kg of insulin in aqueous solution were prepared with the delivery agent compound shown in Table 1 below. Either the sodium salt of the delivery agent compound was used or the free acid was converted to the sodium salt with one equivalent of sodium hydroxide.
The dosing solution was administered to fasted male Sprague-Dawley rats by oral gavage with an average weight of about 225-250 grams. Blood glucose levels were then determined by glucometer (One Touch Ultra®, LifeScan, Inc.) and compared to vehicle control (1 ml/kg of water). Samples were collected prior to dosing (time 0) and at 15, 30, 45 and 60 minutes after dosing. The % glucose reduction values in Table 1 are values found at the C minimum, and are an average % reduction with respect to the number of times the experiment was run for each delivery agent.
0.5 mg/kg of Insulin and 25-100 mg/kg of delivery agent compound (particular amount shown in Table 2 below) was administered to male Sprague-Dawley rats with an average weight of about 225-250 grams. The purpose of this test was to ascertain the dose response of the delivery agent compound. Glucose reduction was determined as set forth in connection with the data in Table 1.
Insulin Titrations were performed with Delivery Agent 29 in order to gauge the effect of varying dosages of insulin.

[4] = tested on: activated partial thromboplastin time (APTT); experiment: Intracolonic delivery of heparin with delivery agent; clotting time (APTT); assay type: in vivo, male Sprague-Dawley rats; details: Delivery Agent 50 mg/kg, USP Heparin 25 mg/kg
Protocol: Oral gavage and/or intracolonic (IC) dosing solutions containing delivery agent compound and heparin sodium USP were prepared in 25% aqueous propylene glycol. Either the sodium salt of the delivery agent compound was used or the free acid was converted to the sodium salt with one equivalent of sodium hydroxide. The delivery agent compound and heparin (about 166-182 IU/mg) were mixed by vortex as dry powders. This dry mixture was dissolved in 25% v/v aqueous propylene glycol, vortexed, and placed in a sonicator (about 37° C.). The pH was adjusted to about 7 (6.5-8.5) with aqueous NaOH (2N). The dosing solution was sonicated to produce a clear solution. The final volume was adjusted to about 3.0 ml.
as §1, with “about 275-350” for “about 250-300”, “24 hours and anesthetized with ketamine hydrochloride (88 mg/kg) intramuscularly immediately prior to dosing and again as needed to maintain anesthesia.” for “24 hours.”, “animals were” for “animals was”, “solutions. For oral gavage dosing, an” for “solutions. An”, “with” for “with the”
For intracolonic (IC) dosing, a 7.5 cm, 8 French Rusch catheter was adapted to a 1 ml syringe with a pipette tip. The dosing catheter was inserted into the colon through the anus until the tube was no longer visible. The dosing solution was expressed slowly into the colon by pressing the syringe plunger.
Citrated blood samples were collected by cardiac puncture following the administration of ketamine (88 mg/kg), typically at 0.25, 0.5, 1.0 and 1.5 hours after dosing. Heparin absorption was verified by an increase in clotting time measured by the activated partial thromboplastin time (APTT) according to the method of Henry, J. B., Clinical Diagnosis and Management by Laboratory Methods, Philadelphia, Pa., W.B. Saunders (1979), which is hereby incorporated by reference. Previous studies indicated baseline values of about 20 seconds. Results from the animals in each group were averaged for each time points and the highest of these averages (i.e. mean peak APTT) is reported.

[5] = oral gavage, 200 mg/kg Delivery Agent Compound, 0.5 mg/kg Insulin, value at C minimum vs vehicle control

SMILES	Tmax [1] [min]	melting point [°C]	Tmax [2] [min]	Tmax [3] [min]	Tmax ([4]; time of peak APTT) [min]	% Glucose Reduction (Blood glucose levels; dose response, Delivery Agent Compound 50 mg/kg, Insulin 0.5 mg/kg) [%]	% Glucose Reduction (Blood glucose levels; dose response, Delivery Agent Compound 100 mg/kg, Insulin 0.5 mg/kg) [%]	% Glucose Reduction (Blood glucose levels; [5]) [%]	% Glucose Reduction (Blood glucose levels; dose response, Delivery Agent Compound 25 mg/kg, Insulin 0.5 mg/kg) [%]	APTT (mean peak) [4] [s]
Cc1ccc(C)c(SCCCCCCCC(=O)O)c1 [Compound 2, 8-(2,5-Dimethyl-phenylsulfanyl)-octanoic acid]		60 to 63		45					−10.0	
COc1ccccc1SCCCCCCCC(=O)O [Compound 1, 8-(2-Methoxy-phenylsulfanyl)-octanoic acid]		62 to 63	5		30			−0.2		180

The next lines start with results.

Tmax [1] [min]	melting point [°C]	Tmax [2] [min]	Tmax [3] [min]	Tmax ([4]; time of peak APTT) [min]	SMILES	% Glucose Reduction (Blood glucose levels; dose response, Delivery Agent Compound 50 mg/kg, Insulin 0.5 mg/kg) [%]	% Glucose Reduction (Blood glucose levels; dose response, Delivery Agent Compound 100 mg/kg, Insulin 0.5 mg/kg) [%]	% Glucose Reduction (Blood glucose levels; [5]) [%]	% Glucose Reduction (Blood glucose levels; dose response, Delivery Agent Compound 25 mg/kg, Insulin 0.5 mg/kg) [%]	APTT (mean peak) [4] [s]
60					COc1ccc(SCCCCC(=O)O)cc1 [Compound 14, 5-(4-Methoxy-phenylsulfanyl)-pentanoic acid]					
	61 to 62	5	15		Cc1ccc(C)c(SCCCCCC(=O)O)c1 [Compound 6, 6-(2,5-Dimethyl-phenylsulfanyl)-hexanoic acid]	−15.8	−19.2	−9.8 ± 30.4		
	61 to 62	5	60		Cc1ccc(C)c(SCCCC(=O)O)c1 [Compound 7, 4-(2,5-Dimethyl-phenylsulfanyl)-butyric acid]					
